This passage reports IC50 results from the supplement of paper PMC7695840.

“And” between values parts separate entries of the source, which are not always exact repeats. Equal entries are not always repeated. Structures can show the parent of a compound that is named as a salt. Where only a bound is given, the exact number is not on record here.

Test [1] has as its system Staphylococcus aureus MW2 (mecA+). In words: IC50 (growth, competition assay). Particulars: cefoxitin: subinhibitory. In a few lines:
(§1)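 Per plate, DsRed (540/590) and GFP (485/520) readings were normalized between the medians of the single-strain controls, after which No Treatment was fixed at 0.5. These readings came from a 1:1 mix of pre-induced fluorescent S. aureus MW2 strains with and without the resistance gene, grown for 20 h at 37 °C and 90% humidity, unshaken, in LB with a daily-set subinhibitory drug dose in 1536-well plates. Per-strain IC50 meant the dose halving the No Treatment signal, or the maximal signal.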

The test system of test [2] is Staphylococcus aureus MW2 delta-mecA (mecA-). Nature of the test: IC50 (growth, competition assay). Particulars: cefoxitin: subinhibitory. In a few lines: as §1

Usually IC50 stands for the concentration that inhibits the measured activity by half. Higher therefore signals lower potency. With `CC[C@H](c1ccc(O)cc1)[C@@H](CC)c1ccc(O)cc1` [HEXESTROL], the IC50 in test [1] (fluorescent label: DsRed) is less than 9.85 µM; in test [1] (fluorescent label: GFP) it was 29.7 µM; in test [2] (fluorescent label: DsRed) it was less than 9.85 µM; in test [2] (fluorescent label: GFP) it was less than 9.85 µM.

`CC(C)N(CCC(=O)c1ccc2ccccc2c1)Cc1ccccc1`: the IC50 in test [1] (fluorescent label: DsRed) is < 9.85 µM and 16.8 µM; in test [1] (fluorescent label: GFP), 14.1 µM and 22.4 µM; in test [2] (fluorescent label: DsRed), less than 9.85 µM; in test [2] (fluorescent label: GFP), less than 9.85 µM.

As to `CC[C@H](C)[C@H](N)C1=N[C@H](C(=O)N[C@@H](CC(C)C)C(=O)N[C@H](CCC(=O)[O-])C(=O)N[C@H](C(=O)N[C@H]2CCCCNC(=O)[C@H](CC(N)=O)NC(=O)[C@@H](CC(=O)[O-])NC(=O)[C@H](Cc3cnc[nH]3)NC(=O)[C@@H](Cc3ccccc3)NC(=O)[C@H]([C@@H](C)CC)NC(=O)[C@@H](CCCN)NC2=O)[C@@H](C)CC)CS1.[Zn+2]` [Bacitracin zinc], the IC50 was found to be 35.2 µM in test [1] (fluorescent label: DsRed), 49.1 µM in test [1] (fluorescent label: GFP), 4.32 µM in test [2] (fluorescent label: DsRed) and 4.06 µM in test [2] (fluorescent label: GFP).

As for `C=C[C@](C)(O)CC[C@@H]1[C@@]2(C)CCCC(C)(C)[C@@H]2CC[C@@]1(C)O` [Sclareol], the IC50 came to 99.3 µM in test [1] (fluorescent label: DsRed), 65.2 µM in test [1] (fluorescent label: GFP), 25 µM in test [2] (fluorescent label: DsRed) and 19.7 µM in test [2] (fluorescent label: GFP).

With `CC[C@H]1OC(=O)C[C@@H](O)[C@H](C)[C@@H](O[C@@H]2O[C@H](C)[C@@H](O[C@H]3C[C@@](C)(O)[C@@H](O)[C@H](C)O3)[C@H](N(C)C)[C@H]2O)[C@@H](CC=O)C[C@@H](C)C(=O)/C=C/C(C)=C/[C@@H]1CO[C@@H]1O[C@H](C)[C@@H](O)[C@@H](OC)[C@H]1OC` [Tylosin tartrate], the IC50 in test [1] (fluorescent label: DsRed), in test [1] (fluorescent label: GFP), in test [2] (fluorescent label: DsRed) and in test [2] (fluorescent label: GFP) was less than 9.85 µM each time.

In the case of `COc1cc(/C=C/C(=O)CC(=O)/C=C/c2ccc(O)c(OC)c2)ccc1O` [Curcumin], the IC50 was 34.7 µM in test [1] (fluorescent label: DsRed), 53.8 µM in test [1] (fluorescent label: GFP), 4.13 µM in test [2] (fluorescent label: DsRed) and 3.73 µM in test [2] (fluorescent label: GFP).

For the molecule `COc1ccc2c(c1)CCC1C2CCC2(C)C(NCCCCCCN3C(=O)C=CC3=O)CCC12` (stereo not drawn), the IC50 in test [1] (fluorescent label: DsRed) was more than 150 µM; in test [1] (fluorescent label: GFP), more than 150 µM; in test [2] (fluorescent label: DsRed), 46.3 µM; in test [2] (fluorescent label: GFP), 44.2 µM.

Consider `C[C@H](Oc1cc(-c2cnn(C3CCNCC3)c2)cnc1N)c1c(Cl)ccc(F)c1Cl` [(S)-crizotinib], for which the IC50 in test [1] (fluorescent label: DsRed) was 75 µM; in test [1] (fluorescent label: GFP), 101 µM; in test [2] (fluorescent label: DsRed), less than 9.85 µM; in test [2] (fluorescent label: GFP), less than 9.85 µM.

As for `O=S(=O)(c1ccccc1)N(CC(F)(F)F)c1ccc(C(O)(C(F)(F)F)C(F)(F)F)cc1`, the IC50 in test [1] (fluorescent label: DsRed) was 24.6 µM; in test [1] (fluorescent label: GFP), 29.6 µM; in test [2] (fluorescent label: DsRed), less than 9.85 µM; in test [2] (fluorescent label: GFP), less than 9.85 µM.

Consider `COc1cccc(OC)c1C(=O)N[C@@H]1C(=O)N2[C@@H]1SC(C)(C)[C@@H]2C(=O)O` [STAPHCILLIN], for which the IC50 in test [1] (fluorescent label: DsRed), in test [1] (fluorescent label: GFP), in test [2] (fluorescent label: DsRed) and in test [2] (fluorescent label: GFP) was less than 9.85 µM throughout.

Turning to `C[C@@H](O[C@H]1OCCN(Cc2n[nH]c(=O)[nH]2)[C@H]1c1ccc(F)cc1)c1cc(C(F)(F)F)cc(C(F)(F)F)c1` [Aprepitant (MK-0869)], the IC50 was found to be 45 µM in test [1] (fluorescent label: DsRed), 54.3 µM in test [1] (fluorescent label: GFP), 18.9 µM in test [2] (fluorescent label: DsRed) and 17.8 µM in test [2] (fluorescent label: GFP).

Consider `Clc1ccc(C(c2ccc(Cl)cc2)[n+]2ccn(CC(OCc3ccc(Cl)cc3Cl)c3ccc(Cl)cc3Cl)c2)cc1` (stereo not drawn) [Calmidazolium chloride], for which the IC50 in test [1] (fluorescent label: DsRed), in test [1] (fluorescent label: GFP), in test [2] (fluorescent label: DsRed) and in test [2] (fluorescent label: GFP) was less than 9.85 µM throughout.

As to `CC[C@H]1OC(=O)[C@H](C)[C@@H](O[C@H]2C[C@@](C)(OC)[C@@H](O)[C@H](C)O2)[C@H](C)[C@@H](O[C@@H]2O[C@H](C)C[C@H](N(C)C)[C@H]2O)[C@](C)(O)C[C@@H](C)/C(=N\OCOCCOC)[C@H](C)[C@@H](O)[C@]1(C)O` [Roxithromycin (Roxl-150)], the half-maximal inhibitory concentration (IC50) in test [1] (fluorescent label: DsRed) was 4.26 µM; in test [1] (fluorescent label: GFP), 3.99 µM; in test [2] (fluorescent label: DsRed), less than 0.498 µM; in test [2] (fluorescent label: GFP) it was less than 0.498 µM.

Consider `CC(=O)O[C@H]1C[C@@]2(C)[C@@H](C[C@@H](O)[C@H]3[C@@]4(C)CC[C@@H](O)[C@@H](C)[C@@H]4CC[C@@]32C)/C1=C(\CCC=C(C)C)C(=O)O` [Fusidic acid sodium], for which the IC50 in test [1] (fluorescent label: DsRed), in test [1] (fluorescent label: GFP), in test [2] (fluorescent label: DsRed) and in test [2] (fluorescent label: GFP) was less than 9.85 µM throughout.

Turning to `CC1=C(O)C(=O)C=C2C1=CC=C1[C@@]2(C)CC[C@@]2(C)[C@@H]3C[C@](C)(C(=O)O)CC[C@]3(C)CC[C@]12C` [Celastrol], the IC50 in test [1] (fluorescent label: DsRed) was 1.67 µM; in test [1] (fluorescent label: GFP) it was 1.73 µM; in test [2] (fluorescent label: DsRed), less than 0.498 µM; in test [2] (fluorescent label: GFP), less than 0.498 µM.

For `CN(Cc1cnc2nc(N)nc(N)c2n1)c1ccc(C(=O)N[C@@H](CCC(=O)O)C(=O)O)cc1` [Abitrexate (Methotrexate)], the IC50 in test [1] (fluorescent label: DsRed) amounted to 115 µM; in test [1] (fluorescent label: GFP) it was 103 µM; in test [2] (fluorescent label: DsRed), 36.3 µM; in test [2] (fluorescent label: GFP) it was 31.5 µM.

As for `OC1(c2ccc(Cl)c(C(F)(F)F)c2)CCN(CCCC(c2ccc(F)cc2)c2ccc(F)cc2)CC1` [SEMAP], the half-inhibitory concentration (IC50) is 29.7 µM in test [1] (fluorescent label: DsRed), 27.3 µM in test [1] (fluorescent label: GFP), less than 9.85 µM in test [2] (fluorescent label: DsRed) and less than 9.85 µM in test [2] (fluorescent label: GFP).

As to `CC(C)(C)c1cc(C(C)(C)C)c(NC(=O)c2c[nH]c3ccccc3c2=O)cc1O` [Ivacaftor (VX-770)], the IC50 stood at 9.86 µM in test [1] (fluorescent label: DsRed), 14.8 µM in test [1] (fluorescent label: GFP), 1.27 µM in test [2] (fluorescent label: DsRed) and 1.6 µM in test [2] (fluorescent label: GFP).

As for `CN(C)CCC=C1c2ccccc2CCc2ccccc21` [ELAVIL], the IC50 was 111 µM in test [1] (fluorescent label: DsRed), 112 µM in test [1] (fluorescent label: GFP), 33.3 µM in test [2] (fluorescent label: DsRed) and 18.5 µM in test [2] (fluorescent label: GFP).

As to `O=C1[C@H](CC[C@H](O)c2ccc(F)cc2)[C@@H](c2ccc(O)cc2)N1c1ccc(F)cc1` [ZETIA], the IC50 in test [1] (fluorescent label: DsRed) was 103 µM; in test [1] (fluorescent label: GFP) it was 105 µM; in test [2] (fluorescent label: DsRed), 25.9 µM; in test [2] (fluorescent label: GFP), 24.8 µM.

In the case of `COC1=C2C[C@@H](C)C[C@H](OC)[C@H](O)[C@@H](C)/C=C(\C)[C@H](OC(N)=O)[C@@H](OC)/C=C\C=C(/C)C(=O)NC(=CC1=O)C2=O` [Geldanamycin], the IC50 in test [1] (fluorescent label: DsRed), in test [1] (fluorescent label: GFP), in test [2] (fluorescent label: DsRed) and in test [2] (fluorescent label: GFP) was less than 9.85 µM throughout.

In the case of `Oc1ccc(Cl)c2cccnc12` [CLOXYQUIN], the IC50 in test [1] (fluorescent label: DsRed) was 26.9 µM; in test [1] (fluorescent label: GFP), 89.7 µM; in test [2] (fluorescent label: DsRed) it was 33.8 µM; in test [2] (fluorescent label: GFP), less than 9.85 µM.

With `C=CCc1ccccc1OCC(O)CNC1(C)CCC(C(C)(C)NC(=O)CBr)CC1` (stereo not drawn) [Bromoacetyl alprenolol menthane], the IC50 was 14.8 µM in test [1] (fluorescent label: DsRed), 14.2 µM in test [1] (fluorescent label: GFP), less than 9.85 µM in test [2] (fluorescent label: DsRed) and less than 9.85 µM in test [2] (fluorescent label: GFP).

`CCCCC(CC)COC(=O)CC(C(=O)OCC(CC)CCCC)S(=O)(=O)O` (stereo not drawn) [COLACE]: the IC50 came to 56.6 µM in test [1] (fluorescent label: DsRed), 52.5 µM in test [1] (fluorescent label: GFP), 18 µM in test [2] (fluorescent label: DsRed) and 13.5 µM in test [2] (fluorescent label: GFP).

Consider `N#C[C@H](O[C@@H]1O[C@H](CO[C@@H]2O[C@H](CO)[C@@H](O)[C@H](O)[C@H]2O)[C@@H](O)[C@H](O)[C@H]1O)c1ccccc1` [Amygdalin], for which the IC50 is 23.8 µM in test [1] (fluorescent label: DsRed), 28.9 µM in test [1] (fluorescent label: GFP), less than 9.85 µM in test [2] (fluorescent label: DsRed) and less than 9.85 µM in test [2] (fluorescent label: GFP).

Regarding `CCn1cc(C(=O)O)c(=O)c2cc(F)c(N3CCN(C)CC3)cc21` [PEFLOXACINE MESYLATE], the IC50 in test [1] (fluorescent label: DsRed), in test [1] (fluorescent label: GFP), in test [2] (fluorescent label: DsRed) and in test [2] (fluorescent label: GFP) was less than 9.85 µM each time.

As to `C=CCc1ccc(O)c(-c2cc(CC=C)ccc2O)c1` [Magnolol], the IC50 amounted to 40.1 µM in test [1] (fluorescent label: DsRed), 49.9 µM in test [1] (fluorescent label: GFP), 12 µM in test [2] (fluorescent label: DsRed) and 8.24 µM in test [2] (fluorescent label: GFP).
